Data published in US11052100B2, “Stable nicotinamide riboside composition and preparation method thereof” (BONTAC BIO-ENGINEERING (SHENZHEN) CO., LTD, priority 2018, dated 2021).

Experiment: Stability accelerated test (purity of nicotinamide riboside by HPLC)
Type: physicochemical
Conditions: 25° C.±2° C., relative humidity 60% ±10%, average of 3 samples
Method: The stability accelerated test was carried out on test subjects (nicotinamide riboside and the nicotinamide riboside composition prepared in Embodiment 1 to Embodiment 4 of the present invention) in accordance with the provisions of the Guidelines for Drug Stability Test in the Chinese Pharmacopoeia 2015. The test method was: taking 3 samples from each test subject in an environment with a temperature of 25° C.±2° C. and a relative humidity of 60% ±10%, taking samples once at the end of the 0th month, 1st month, 2nd month, 3rd month, and 6th month during the test period, detecting the purity of nicotinamide riboside by HPLC, and calculating an average value of 3 parts. In the table, 1, 2, 3 and 4 in the first column represent Embodiment 1, Embodiment 2, Embodiment 3 and Embodiment 4, respectively, NR represents nicotinamide riboside, KGM represents konjac glucomannan, and RA represents rebaudioside A.

NC(=O)c1ccc[n+]([C@@H]2O[C@H](CO)[C@@H](O)[C@H]2O)c1 [NR, Nicotinamide riboside]
purity of nicotinamide riboside by HPLC, 0th month (end of 0th month): 99.6%
purity of nicotinamide riboside by HPLC, 1st month (end of 1st month): 10.6%
purity of nicotinamide riboside by HPLC, 2nd month (end of 2nd month): 5.1%
purity of nicotinamide riboside by HPLC, 3rd month (end of 3rd month): 3.4%
purity of nicotinamide riboside by HPLC, 6th month (end of 6th month): 3.2%
